According to article PMC4770308, “Discovery of a Chemical Tool Inhibitor Targeting the Bromodomains of TRIM24 and BRPF” (Journal of Medicinal Chemistry, 2015):

How the values were obtained:
[1] = biological target: T1, BRD1 (BRPF2) bromodomain (Homo sapiens, UniProt O95696); assay: Isothermal titration calorimetry, BRD1; details: single binding site model
T1 sequence (O95696 562-666 limits assumed): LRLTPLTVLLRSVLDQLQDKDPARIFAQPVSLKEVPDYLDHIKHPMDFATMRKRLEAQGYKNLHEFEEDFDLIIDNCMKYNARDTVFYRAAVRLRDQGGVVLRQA

[2] = biological target: T2, triplicated BRPF1B bromodomain construct with nuclear localization signal (Homo sapiens, UniProt P55201); assay: FRAP assay, BRPF1B; assay type: cell-based; details: with SAHA
T2 sequence (P55201 628-732 limits assumed): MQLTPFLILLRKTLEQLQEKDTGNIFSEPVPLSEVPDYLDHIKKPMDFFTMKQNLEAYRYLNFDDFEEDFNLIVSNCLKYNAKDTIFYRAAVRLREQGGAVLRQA

[3] = biological target: T3, PHD/bromodomain of TRIM24 (Homo sapiens, UniProt O15164); assay: Isothermal titration calorimetry, TRIM24; details: single binding site model
T3 construct: His6 (N, cleaved yes); SUMO-1 (N, cleaved yes); made in house; host or cells: E. coli BL21(DE3)-R3-pRARE2
T3 sequence (O15164 825-1006): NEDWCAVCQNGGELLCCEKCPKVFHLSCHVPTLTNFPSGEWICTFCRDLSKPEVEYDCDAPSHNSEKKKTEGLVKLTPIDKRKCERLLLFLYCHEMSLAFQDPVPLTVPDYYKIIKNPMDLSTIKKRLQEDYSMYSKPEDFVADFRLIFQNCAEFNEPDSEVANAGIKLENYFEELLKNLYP

[4] = tested on: panel of 45 human bromodomains; assay: Temperature shift assay, bromodomain selectivity panel; assay type: binding; details: 45 bromodomains; ΔTm smaller than 1 degree not considered significant
[5] = tested on: panel of diverse cancer cell lines (MCF-7, RKO, MM1S, RCH-ACH, JJN-3); assay: Cytotoxicity assay (CellTiter-Glo), cancer cell line panel; assay type: cell-based; details: 72 hours, 5 x E-05 M to 8 x E-08 M
Method: (§1) A more comprehensive evaluation of the role of TRIM24 in cancer cell proliferation and chromatin biology would require the development of a tool compound with improved selectivity.
(§2) Calorimetric experiments were performed on a VPqITC microqcalorimeter (MicroCalTM, LLC Northampton, MA). Protein solutions were buffer exchanged by gel filtration or dialysis into buffer (20 mM Hepes pH 7.5, 150 mM NaCl, and 0.5 mM tris (2qcarboxyethyl) phosphine (TCEP)]. All measurements were carried out at 293.15 K while stirring at 286 rpm. The micro syringe was loaded with a protein solution of 250 µM, the compound solution was prepared at 20 µM and 2mL for the cell. All injections were performed using an initial injection of 2 µl followed by 34 injections of 8 µl with a duration of 16 sec per injection and a spacing of 240 sec between injection. The data were analysed with the MicroCal ORIGIN software package employing a single binding site model. The first data point was excluded from the analysis.
(§3) Thermodynamic parameters were calculated (∆G = ∆H q T∆S = qRTlnKB where ∆G, ∆H and ∆S are the changes in free energy, enthalpy and entropy of binding, respectively).
(§4) Temperature shift assays have been carried out as described in Fedorov et al. 2.
(§5) Fluorescence recovery after photobleaching (FRAP)
(§6) The TRIM24 FRAP assay has been carried out as described in Philpott et al.3. […]

[6] = tested on: MCF-7 breast cancer cell line; assay: Cytotoxicity assay (CellTiter-Glo), MCF-7; assay type: cell-based; details: 72 hours, concentration range tested
Method: as §1, §2, §3, §4, §5, §6

[7] = biological target: T4, full length TRIM24 fused to GFP (Homo sapiens, UniProt O15164); assay: FRAP assay, TRIM24; assay type: cell-based; details: 1 μM, compared with N980F mutant
T4 sequence (O15164 1-1050): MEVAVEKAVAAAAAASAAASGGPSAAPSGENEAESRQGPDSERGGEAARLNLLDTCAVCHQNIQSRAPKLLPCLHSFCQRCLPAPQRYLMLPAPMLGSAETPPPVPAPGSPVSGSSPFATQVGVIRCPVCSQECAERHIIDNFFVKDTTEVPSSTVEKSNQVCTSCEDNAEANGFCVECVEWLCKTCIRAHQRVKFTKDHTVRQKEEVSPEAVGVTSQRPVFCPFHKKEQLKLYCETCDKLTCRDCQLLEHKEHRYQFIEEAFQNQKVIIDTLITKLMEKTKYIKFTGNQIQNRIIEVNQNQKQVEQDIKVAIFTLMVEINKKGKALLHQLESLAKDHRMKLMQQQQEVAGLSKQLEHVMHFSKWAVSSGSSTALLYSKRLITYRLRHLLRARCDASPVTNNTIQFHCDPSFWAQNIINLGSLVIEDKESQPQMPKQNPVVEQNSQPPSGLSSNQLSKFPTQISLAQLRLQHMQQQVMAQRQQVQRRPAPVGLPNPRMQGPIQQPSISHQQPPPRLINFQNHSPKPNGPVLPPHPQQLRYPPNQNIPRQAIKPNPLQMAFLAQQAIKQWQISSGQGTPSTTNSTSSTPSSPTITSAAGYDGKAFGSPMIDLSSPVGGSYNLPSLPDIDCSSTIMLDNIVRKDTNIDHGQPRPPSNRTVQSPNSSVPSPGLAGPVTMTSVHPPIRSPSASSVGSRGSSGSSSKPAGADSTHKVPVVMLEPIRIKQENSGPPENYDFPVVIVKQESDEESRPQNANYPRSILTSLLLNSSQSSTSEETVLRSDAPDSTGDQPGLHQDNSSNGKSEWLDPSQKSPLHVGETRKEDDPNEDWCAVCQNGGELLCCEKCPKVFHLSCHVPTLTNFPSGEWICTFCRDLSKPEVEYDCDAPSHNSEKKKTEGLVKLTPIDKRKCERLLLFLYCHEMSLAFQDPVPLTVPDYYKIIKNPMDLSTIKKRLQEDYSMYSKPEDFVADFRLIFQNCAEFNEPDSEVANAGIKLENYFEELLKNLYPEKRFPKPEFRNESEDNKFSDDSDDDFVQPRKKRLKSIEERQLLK

[8] = biological target: T5, BRPF1 bromodomain (BRPF1B) (Homo sapiens, UniProt P55201); assay: Isothermal titration calorimetry, BRPF1; details: single binding site model
T5 sequence (P55201 628-732 limits assumed): T2 sequence (P55201 628-732 limits assumed)

[9] = biological target: T6, TRIM24 bromodomain (Homo sapiens, UniProt O15164); assay: AlphaScreen assay, TRIM24 bromodomain; assay type: binding; details: 6-methoxy (R2) analogues
T6 sequence (O15164 899-1004 limits assumed): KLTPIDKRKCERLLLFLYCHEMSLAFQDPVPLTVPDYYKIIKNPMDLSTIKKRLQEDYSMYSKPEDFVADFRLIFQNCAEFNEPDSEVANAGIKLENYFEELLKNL
Method: However, the most interesting compounds of this series (3–5) also had 3–4 μM activity against TRIM24, which prompted us to explore this scaffold for the development of TRIM24 inhibitors (Table 1).

| SMILES | N (ITC stoichiometry), BRD1 [1] | fluorescent recovery time, BRPF1B FRAP (in words) [2] | N (ITC stoichiometry), TRIM24 [3] | selectivity in temperature shift (ΔTm) panel (in words) [4] | cytotoxicity in cancer cell lines (in words) [5] | sensitivity of MCF-7 (in words) [6] | fluorescent recovery half-time, TRIM24 FRAP (in words) [7] | N (ITC stoichiometry), BRPF1B [8] | activity against TRIM24 (in words) [9] |
| --- | --- | --- | --- | --- | --- | --- | --- | --- | --- |
| COc1ccc(Oc2cc3c(cc2NS(=O)(=O)c2ccc(OC)c(OC)c2)n(C)c(=O)n3C)cc1 [Compound 34] | 1.127 ± 0.02 | reduced recovery times | 0.923 ± 0.003 | excellent selectivity of 34 for BRPF1B/2 and TRIM24 | no significant cytotoxicity | resistant | effectively reduced fluorescent recovery half-time | 0.996 ± 0.002 | – |
| COc1cc2c(cc1NS(=O)(=O)c1ccc(Br)cc1C)n(C)c(=O)n2C [Compound 8] | – | – | – | – | – | – | – | – | lost activity against TRIM24 |
